{
  "source": "patent US20130023001A1",
  "about": "“USE OF A SUBSTRATE IN A METHOD FOR MEASURING THE ACTIVITY OF PROTEOLYTIC ENZYMES” (priority 2011, published 2013)",
  "assay_type_in_all_cases": "biochemical",
  "key": {"[1]": {"tested_on": "low-molecular-weight heparin, Fragmine®", "assay": "evaluation method for heparin neutralization by anti-Xa activity (chromogenic para-nitroaniline substrate) with low-molecular-weight heparin", "from_the_text": "(§1) Before referring to the diagrams of the figures, the evaluation method used to quantify the neutralization of the glycosaminoglycans in a blood sample, and in particular a plasma, will be described. This method makes it possible to use both unfractionated heparins and low-molecular-weight heparins. In addition, the method endeavors to test the activity of factor Xa, located at the crossroads of two enzymatic cascades resulting in the formation of thrombin. Moreover, antithrombin, which is a natural inhibitor of thrombin generation, controls the reaction. As soon as it appears, factor Xa couples to its natural substrate, prothrombin, so as to form thrombin. The heparin contained in the sample forms, itself, a complex with antithrombin, which complex promotes the inhibition of factor Xa.\n(§2) Thus, a chromogenic substrate based on para-nitroaniline, which factor Xa hydrolyzes, is used and the release of the para-nitroaniline, which can be measured optically, is then inversely proportional to the concentration of heparin present in the medium. A measurement of the anti-Xa activity is thus deduced therefrom.\n(§3) The percentage neutralization by the synthetic polymer is determined as being the ratio of the difference in the variation in anti-Xa activity in the medium containing the physiological saline and in the medium containing the neutralizing agent, between two heparin concentrations, and only the variation in activity in the medium containing the physiological saline, between the same two heparin concentrations, this ratio being multiplied by 100 in order to obtain the result as percentage neutralization.\n(§4) The percentage neutralization can also be written more compactly: 100×(1−ΔA1/ΔA2), wherein ΔA1 corresponds to the variation in activity in the presence of neutralizing compound and ΔA2 to the variation in the presence of physiological saline. Thus, the parallel measurement of the variation in the presence of physiological saline makes it possible to establish the reference in each series of measurements.\nStill in this first part of the description, the abovementioned evaluation method was implemented with a low-molecular-weight heparin, Fragmine®."}, "[2]": {"tested_on": "unfractionated heparin, Calciparine®", "assay": "evaluation method for heparin neutralization by anti-Xa activity (chromogenic para-nitroaniline substrate) with unfractionated heparin", "conditions": "for percentage neutralization of Calciparine®, 100×(1−ΔA1/ΔA2): heparin concentrations between 0 and 1.67 IU/ml", "from_the_text": "as §1, §2\nIn this first example, the heparin used is an unfractionated calcium heparin sold under the brand name: “Calciparine®”. According to the evaluation method, the anti-Xa activity is recorded and transferred onto the y-axis, as a function of the heparin concentration of the medium. The heparin concentrations vary between 0 and 1.67 IU/ml and are relatively close to the therapeutic concentrations. The first inclined curve 10 corresponds to a first series of measurements wherein physiological saline is added to the blood sample in addition to the para-nitroaniline-based substrate, while the second inclined curve 12 corresponds to a second series of measurements wherein a neutralizing synthetic polymer, polybrene, intended to neutralize the anticoagulant effects of the heparin, is added to the blood sample. This compound is well known for its effects on heparin and is usually employed in methods for measuring the activity of proteolytic enzymes in order to actually dispense with the anticoagulant effect of heparin.\nas §3, §4"}, "thrombin": {"biological_target": "T1, thrombin (Homo sapiens, UniProt P00734)", "T1 construct": "from tissue; host or cells: blood sample (plasma) containing heparin; thrombin generation triggered with tissue factor and calcium", "assay": "measuring method: thrombin generation fluorescent signal in a blood sample containing heparin", "protocol": "According to one embodiment of the measuring method, the enzymatic activity monitored is that of thrombin generation. The principle lies in the monitoring of the measurement of a fluorescent signal after the enzyme substrate has been brought into contact with a blood sample containing heparin, and the reaction conditions allow the thrombin to cleave the substrate between the peptide part and the fluorophore, in this case rhodamine110.\nIn order to implement the method, a blood sample of 40 μL containing heparin is first of all introduced into a microcuvette. 10 μL of the enzyme substrate in accordance with the invention mixed with an initiating reagent, and 10 μL of activating reagent are added thereto. The initiating reagent is […] and it has a concentration of 16.7×10^−3 mol.L^−1. The activating reagent is tissue factor at a concentration of 10^−12 mol.L^−1.\nNext, an excitation signal having a predetermined wavelength is emitted through the microcuvette and the response to the excitation signal is recorded optically over time. Thus, the greater the amount of thrombin generated, the greater the signal response.\nAccording to one particular embodiment, the enzyme substrate chosen is that corresponding to the embodiment variant V(3) of the first part of the detailed description, and of synthetic formula (R^2−GGR)2-Rhod110. […]"}},
  "data": [
    {"substance": "R^2GGR-Rhod110-R [V(1)]", "values": [
      {"measurement": "percentage neutralization of Fragmine®", "setting": "[1]; heparin 0.42 IU/ml", "result": 64, "unit": "%"},
      {"measurement": "percentage neutralization of Fragmine®", "setting": "[1]; heparin 0.83 IU/ml", "result": 65, "unit": "%"},
      {"measurement": "percentage neutralization of Fragmine®", "setting": "[1]; heparin 1.25 IU/ml", "result": 64, "unit": "%"},
      {"measurement": "percentage neutralization of Fragmine®", "setting": "[1]; heparin 1.67 IU/ml", "result": 72, "unit": "%"},
      {"measurement": "percentage neutralization of Calciparine®, 100×(1−ΔA1/ΔA2)", "setting": "[2]", "result": "~100", "unit": "%"}
    ]},
    {"substance": "R^2GGR-Rhod110-Benzoic [V(5)]", "values": [
      {"measurement": "percentage neutralization of Fragmine®", "setting": "[1]; heparin 0.42 IU/ml", "result": 77, "unit": "%"},
      {"measurement": "percentage neutralization of Fragmine®", "setting": "[1]; heparin 0.83 IU/ml", "result": 75, "unit": "%"},
      {"measurement": "percentage neutralization of Fragmine®", "setting": "[1]; heparin 1.25 IU/ml", "result": 75, "unit": "%"},
      {"measurement": "percentage neutralization of Fragmine®", "setting": "[1]; heparin 1.67 IU/ml", "result": 74, "unit": "%"},
      {"measurement": "percentage neutralization of Calciparine®", "setting": "[2]; heparin 0.42 IU/ml", "result": 100, "unit": "%"},
      {"measurement": "percentage neutralization of Calciparine®", "setting": "[2]; heparin 0.83 IU/ml", "result": 97, "unit": "%"},
      {"measurement": "percentage neutralization of Calciparine®", "setting": "[2]; heparin 1.25 IU/ml", "result": 98, "unit": "%"},
      {"measurement": "percentage neutralization of Calciparine®", "setting": "[2]; heparin 1.67 IU/ml", "result": 98, "unit": "%"}
    ]},
    {"substance": "R^2GGR-Rhod110-H [V(4)]", "values": [
      {"measurement": "percentage neutralization of Fragmine®", "setting": "[1]; heparin 0.42 IU/ml", "result": 83, "unit": "%"},
      {"measurement": "percentage neutralization of Fragmine®", "setting": "[1]; heparin 0.83 IU/ml", "result": 83, "unit": "%"},
      {"measurement": "percentage neutralization of Fragmine®", "setting": "[1]; heparin 1.25 IU/ml", "result": 72, "unit": "%"},
      {"measurement": "percentage neutralization of Fragmine®", "setting": "[1]; heparin 1.67 IU/ml", "result": 64, "unit": "%"},
      {"measurement": "percentage neutralization of Calciparine®", "setting": "[2]; heparin 0.42 IU/ml", "result": 96, "unit": "%"},
      {"measurement": "percentage neutralization of Calciparine®", "setting": "[2]; heparin 0.83 IU/ml", "result": 90, "unit": "%"},
      {"measurement": "percentage neutralization of Calciparine®", "setting": "[2]; heparin 1.25 IU/ml", "result": 89, "unit": "%"},
      {"measurement": "percentage neutralization of Calciparine®", "setting": "[2]; heparin 1.67 IU/ml", "result": 80, "unit": "%"}
    ]},
    {"substance": "(EtM-VR)2-Rhod110 [V(2)]", "values": [
      {"measurement": "percentage neutralization of Fragmine®", "setting": "[1]; heparin 0.42 IU/ml", "result": 71, "unit": "%"},
      {"measurement": "percentage neutralization of Fragmine®", "setting": "[1]; heparin 0.83 IU/ml", "result": 78, "unit": "%"},
      {"measurement": "percentage neutralization of Fragmine®", "setting": "[1]; heparin 1.25 IU/ml", "result": 79, "unit": "%"},
      {"measurement": "percentage neutralization of Fragmine®", "setting": "[1]; heparin 1.67 IU/ml", "result": 78, "unit": "%"},
      {"measurement": "percentage neutralization of Calciparine®, 100×(1−ΔA1/ΔA2)", "setting": "[2]", "result": "~100", "unit": "%"}
    ]},
    {"substance": "EtM-VR-Rhod110-Ac [reference compound]", "values": [
      {"measurement": "strength of the thrombin activity signal relative to the series of measurements without heparin", "setting": "thrombin; heparin 1.5 IU/ml, after 30 minutes, FIG. 7", "result": "~3", "unit": "%"}
    ]},
    {"substance": "(R^2GGR)2-Rhod110 [V(3)]", "values": [
      {"measurement": "effect of heparin on the thrombin activity measurement (signal curve with versus without heparin)", "setting": "thrombin; unfractionated heparin 1.5 IU/ml, FIG. 5", "result": "very small effect"},
      {"measurement": "percentage neutralization of Fragmine®", "setting": "[1]; heparin 0.42 IU/ml", "result": 88, "unit": "%"},
      {"measurement": "percentage neutralization of Fragmine®", "setting": "[1]; heparin 0.83 IU/ml", "result": 90, "unit": "%"},
      {"measurement": "percentage neutralization of Fragmine®", "setting": "[1]; heparin 1.25 IU/ml", "result": 91, "unit": "%"},
      {"measurement": "percentage neutralization of Fragmine®", "setting": "[1]; heparin 1.67 IU/ml", "result": 91, "unit": "%"},
      {"measurement": "percentage neutralization of Calciparine®", "setting": "[2]; heparin 0.42 IU/ml", "result": 90, "unit": "%"},
      {"measurement": "percentage neutralization of Calciparine®", "setting": "[2]; heparin 0.83 IU/ml", "result": 93, "unit": "%"},
      {"measurement": "percentage neutralization of Calciparine®", "setting": "[2]; heparin 1.25 IU/ml", "result": 94, "unit": "%"},
      {"measurement": "percentage neutralization of Calciparine®", "setting": "[2]; heparin 1.67 IU/ml", "result": 96, "unit": "%"}
    ]}
  ]
}
